The data set can be described thus: solvent given as SMILES.

Among the data in the Deep4Chem optical property database are emission maximum values, retold here.

Molecules are shown by their SMILES.

Where the note is “in ClCCl”, `C[Si]1(C)O[Si](C)(C)c2cc3c(-c4ccccc4F)c4cc(Cl)ccc4nc3cc21` displayed an emission maximum of 498 nm.
In the case of `Cc1nc2c(ccc3c2sc(/C=C/c2cc4c5c(c2)CCCN5CCC4)[n+]3C)s1`, the emission maximum came to 622 nm (in CO) and 623 nm (in ClC(Cl)Cl).
On to `C1=[N+](c2ccccc2)[B-](c2ccccc2)(c2ccccc2)Oc2c1ccc1c3c(ccc21)C=[N+](c1ccccc1)[B-](c1ccccc1)(c1ccccc1)O3`, for which the emission maximum is given as 602 nm (in Cc1ccccc1) and 594 nm (in ClCCl).
For the setting “in ClC(Cl)Cl”, `CO[B-]1(OC)n2c(C)cc(C)c2C(c2ccc(I)cc2)=C2C(C)=CC(C)=[N+]21` yielded an emission maximum of 517.6 nm.
For the setting “in CC#N”, `CCOC(=O)c1c2c3c(cccc3c3cc4ccccc4cc13)N(C)C2=O` registered an emission maximum of 413 nm.
For the molecule `Cc1nc2c(cc3c4c(cccc42)C(=O)OC3=O)o1`, for the setting “in CCO”, the emission maximum is reported as 418 nm.
Take `NC(=O)Cc1cccc2ccccc12`: the emission maximum reads like this: (in C1COCCO1) 326 nm; (in CC#N) 325 nm; (in CCO) 325 nm; (in ClC(Cl)Cl) 325 nm; (in O) 324 nm; (in OCCO) 325 nm. Further, the emission maximum (in [2H]O[2H]) is 324 nm.
Consider `CC1(C)C(/C=C/C=C/c2cc3ccc(O)cc3oc2=O)=[N+](CCCS(=O)(=O)[O-])c2ccccc21`, for which the emission maximum was 653 nm (in CS(C)=O) and 720 nm (in O).
As to `Cc1cc(C)c(C2=C3C=CC=[N+]3[B-]3(c4ccc5ccc6cccc7ccc4c5c67)Oc4cc(O)cc5c6ccc(C)cc6c6cc2n3c6c45)c(C)c1` (stereo not given), the emission maximum (in ClC(Cl)Cl) came to 670 nm.
On to `Nc1ccc(/C=C/c2ccccc2)cc1`, for which the emission maximum is recorded as 423 nm (in CC#N) and 380 nm (in CCCCCC).
Take `CC(C)(C)NC(=O)c1ccc2ccc3cccc4ccc1c2c34`: the emission maximum (in ClC(Cl)Cl) worked out at 382 nm.
`Cc1cc(-c2ccc(-c3ccccc3)cc2)nc(-c2ccc(-n3c4ccccc4c4ccccc43)cc2)n1` displayed an emission maximum (in C1CCOC1) of 418 nm, an emission maximum (in CN(C)C=O) of 474 nm, an emission maximum (in Cc1ccccc1) of 386 nm and an emission maximum (in ClC(Cl)Cl) of 416 nm.
As for `N#Cc1cccc2[nH]ccc12`, the emission maximum was found to be 371 nm (in C1CCOC1); 369 nm (in C1COCCO1); 380 nm (in CC#N); 385 nm (in CC(C)O); 387 nm (in CCO); 390 nm (in CO). Besides, the emission maximum is listed as 392 nm (in CS(C)=O), 405 nm (in O) and 394 nm (in OCC(F)(F)F).
For the molecule `O=C(O)CCCCCNC(=O)c1cccc2c(=O)c3ccccc3[nH]c12`, the emission maximum (in O) was determined as 438 nm.
Take `O=C1c2ccccc2-c2ccc(N3CCOCC3)c3cccc1c23`: the emission maximum is, setting by setting: (in C1CCOC1) 600 nm; (in CCCCCC) 529 nm; (in CCO) 640 nm; (in CCOC(C)=O) 600 nm; (in CN(C)C=O) 622 nm; (in CO) 661 nm. The molecule further returned an emission maximum (in Cc1ccccc1) of 568 nm; an emission maximum (in ClC(Cl)(Cl)Cl) of 552 nm; an emission maximum (in ClC(Cl)Cl) of 625 nm; an emission maximum (in ClCCl) of 625 nm; an emission maximum (in c1ccccc1) of 562 nm.
Consider `Cc1sc(Cl)cc1-c1nc(-c2ccc(Cl)cc2)[nH]c1-c1cc(Cl)sc1C`, for which the emission maximum (in CC#N) turned out to be 390 nm.
`COC(=O)COc1ccc(/C=C/C2=[N+]3C(=C(c4ccccc4)c4c(C)cc(C)n4[B-]3(F)F)C(C)=C2)cc1` returned an emission maximum (in CO) of 574 nm.
Under “in O=P(c1ccccc1)(c1ccccc1)c1ccccc1Oc1ccccc1P(=O)(c1ccccc1)c1ccccc1”, `O=S1(=O)c2ccccc2-c2cc(-n3c4ccccc4c4cc(-c5ccc6c(c5)c5ccccc5n6-c5ccccc5)ccc43)ccc21` yielded an emission maximum of 462.73 nm.
Turning to `Clc1ccc(-c2nc3sc4ccccc4c3s2)cc1`, the emission maximum (in CS(C)=O) was 418 nm.
As for `CC1=CC(C)=[N+]2C1=C(c1ccc(I)cc1)c1c(C)cc(C)n1[B-]2(Oc1ccc(Cl)cc1)Oc1ccc(Cl)cc1`, the emission maximum (in ClC(Cl)Cl) is recorded as 519.7 nm.
On to `COc1nc(Cl)nc(Nc2ccc3c4c(cccc24)C(=O)c2ccccc2-3)n1`, for which the emission maximum is, setting by setting: (in CC#N) 537.92 nm; (in CC(C)=O) 526.87 nm; (in CC(C)O) 570.13 nm; (in CCCCOCCCC) 507.1 nm; (in CCOC(C)=O) 520.02 nm; (in CCOCC) 514.14 nm. Further, the emission maximum is 578.03 nm (in CO); 518.13 nm (in Cc1ccccc1); 524.93 nm (in Clc1ccccc1); 526.04 nm (in N#Cc1ccccc1); 524.11 nm (in O=C1CCCCC1).
`O=S1(=O)c2ccccc2C2(c3cc(-c4ccc(-n5c6ccccc6c6ccccc65)cc4)ccc3-c3ccc(-c4ccc(-n5c6ccccc6c6ccccc65)cc4)cc32)c2ccccc21` yielded an emission maximum (in ClCCl) of 427 nm and an emission maximum (in c1cc(-n2c3ccccc3c3ccccc32)cc(-n2c3ccccc3c3ccccc32)c1) of 412 nm.
`CC1=[N+]2C(=C(c3ccccc3)c3c4ccccc4c(C)n3[B-]2(F)F)c2ccccc21` had an emission maximum (in CC#N) of 606 nm.
Consider `CCCCCCn1c2c(c3ccccc31)-c1c(c3ccccc3n1CCCCCC)-c1c(c3ccccc3n1CCCCCC)-c1c-2c2ccccc2n1CCCCCC`, for which the emission maximum (in ClCCl) is 352 nm.
For the molecule `CC1=N/C(=C\c2ccc(C#N)c(N(C)C)c2)C(=O)N1C`, the emission maximum reads like this: (in C1CCOC1) 568 nm; (in CC#N) 592 nm; (in CCCCCC) 496 nm.
For `O=C(c1ccncc1)c1ccc(-n2c3ccccc3c3cc(-n4c5ccccc5c5ccccc54)ccc32)cc1`, the emission maximum runs as follows: (in Cc1ccccc1) 480 nm; (in c1cc(-c2cccc(-n3c4ccccc4c4ccccc43)c2)cc(-n2c3ccccc3c3ccccc32)c1) 475.23 nm.
As for `Oc1ccccc1-c1nc2c3ccccc3c3ccccc3c2o1`, for the setting “in Cc1ccccc1”, the emission maximum is 367 nm.
On to `Nc1ccc2c(-c3ccc(C(=O)CN4C(=O)CCC4=O)cc3C(=O)[O-])c3ccc(=[NH2+])c(S(=O)(=O)[O-])c-3oc2c1S(=O)(=O)[O-]`, for which the emission maximum (in O) came to 519 nm.
Regarding `CN(C)c1ccc(/C=C/c2nc3ccccc3s2)cc1`, the emission maximum by setting is: (in C1CCCCC1) 447 nm; (in C1CCOC1) 482 nm; (in C1COCCO1) 467 nm; (in CC#N) 504 nm; (in CC(C)O) 493 nm; (in CCCCCC) 445 nm. For the same molecule, the emission maximum was 446 nm (in CCCCCCC); 498 nm (in CCO); 477 nm (in CCOC(C)=O); 460 nm (in CCOCC); 504 nm (in CN(C)C=O); 507 nm (in CO). The emission maximum turned out to be 513 nm (in CS(C)=O), 516 nm (in O) and 530 nm (in OCC(O)CO).
As for `COc1cccc2cc(C)c3c4ccccc4[nH]c3c12`, the emission maximum (in ClCCl) amounted to 365 nm.
On to `CC(C)c1ccc2ccc3c(C(C)C)ccc4ccc1c2c43`, for which the emission maximum reads like this: (in CCCCCC) 380 nm; (in CO) 380 nm; (in ClCCl) 381 nm.
For the molecule `CCCCC(CC)Cn1c2cc(C#N)ccc2c2ccc(C#Cc3ccc4ccc5c(C#Cc6ccc7c8ccc(C#N)cc8n(CC(CC)CCCC)c7c6)cc(C#Cc6ccc7c8ccc(C#N)cc8n(CC(CC)CCCC)c7c6)c6ccc3c4c56)cc21` (stereo not given), the emission maximum (in ClCCl) was 458 nm.
Consider `COc1ccc(O)cc1C=O`, for which the emission maximum came out at 489 nm (in CO) and 433 nm (in ClC(Cl)Cl).
For the molecule `c1cc2c3c(c1)-c1ccc4c5c(ccc(c15)B3c1ccc3c5c(ccc-2c15)CC3)CC4`, where the note is “in Cc1ccccc1”, the emission maximum is reported as 516 nm.
On to `COc1ccc2cc(-c3ccc(S(C)(=O)=O)cc3)oc(=O)c2c1`, for which the emission maximum (in CCO) amounted to 410 nm; the emission maximum (in CCOC(C)=O) is on record as 404 nm; the emission maximum (in CN(C)C=O) is reported as 410 nm; the emission maximum (in CO) is recorded as 410 nm; the emission maximum (in ClC(Cl)Cl) was 408 nm.
With `CCn1c2ccccc2sc2c(C#N)c3[nH]c4ccccc4sc3c(C#N)c21`, the emission maximum (in ClC(Cl)Cl) was found to be 615 nm.
Turning to `NS(=O)(=O)c1ccc(N2N=C(c3ccc(O)cc3)CC2c2ccc(F)cc2)cc1` (stereo not given), the emission maximum by setting is: (in C1CCOC1) 417 nm; (in C1COCCO1) 417 nm; (in CC#N) 417 nm; (in CC(C)O) 423 nm; (in CCO) 427 nm; (in CCOC(C)=O) 416 nm. Besides, the emission maximum is on record as 421 nm (in CN(C)C=O), 430 nm (in CO), 424 nm (in CS(C)=O) and 448 nm (in O).
As for `CCN(CC)c1ccc2cc(/C=C/C3=CC(/C=C/c4cc5ccc(N(CC)CC)cc5oc4=O)=[O+][B-](F)(F)O3)c(=O)oc2c1`, the emission maximum (in CC#N) stood at 725 nm; the emission maximum (in CC(C)=O) amounted to 710 nm; the emission maximum (in CCOC(C)=O) is listed as 659 nm; the emission maximum (in CN(C)C=O) stood at 729 nm; the emission maximum (in CS(C)=O) worked out at 741 nm; the emission maximum (in Cc1ccccc1) came to 626 nm. The molecule further returned an emission maximum (in ClC(Cl)Cl) of 669 nm and an emission maximum (in ClCCl) of 705 nm.
Molecule `COc1ccc(-c2cccc3ncc(-c4ccccc4)n23)cc1` registered an emission maximum (in ClCCl) of 468 nm.
The molecule `COc1ccc(N(c2ccc(OC)cc2)c2ccc(-c3ccc(-c4ccc(-c5ccc(-c6ccc(N(c7ccc(OC)cc7)c7ccc(OC)cc7)cc6)s5)c5nsnc45)s3)cc2)cc1` had an emission maximum (in ClC(Cl)Cl) of 710 nm.
For `CC1=C2C=CC=[N+]2[B-](F)(F)n2cccc21`, the emission maximum is, setting by setting: (in CCCCCC) 506 nm; (in CO) 503 nm; (in ClCCl) 507 nm.
